The text below walks through data of patent US20130116284A1, “LIPOIC ACID AND NITROXIDE DERIVATIVES AND USES THEREOF” (RADIKAL THERAPEUTICS INC., priority 2010, published 2013).

In one test the test system is RAW cells. As to the kind of experiment: cytoprotection of RAW cells exposed to H2O2 (viability). To be noted: 0.1 μM, same model system (not shown).
The subject of another test is PARP. Particulars: read-out: PARP inhibitor IC50; stated for the monofunctional PARP inhibitor, no method given; cited from earlier work.
In the next test the test system is Balb/c mice. As to the kind of experiment: murine model of chlorine inhalational lung injury (lung MPO, lung histology). Format: in vivo. Particulars: 30 mg/kg/dose IP q12h from 15 minutes after 400 ppm Cl2 for 30 minutes; lung at 24 hours; relative to placebo (D5W). The procedure: In this study, we potency of compound 1 (R-503) in treatment of chlorine inhalational lung injury was tested.
Male Balb/c mice were exposed in a cylindrical glass chamber to 400 ppm Cl2 in air for 30 minutes. 15 minutes after the conclusion of Cl2 exposure, mice were initiated on a q12h regimen of compound 1 (30 mg/kg/dose IP in 0.5 ml dextrose 5% in water, D5W). At 24 hours, mice were euthanized and lung tissue was taken for examination of polymorphonuclear neutrophil (PMN) infiltration (as reflected by MPO) and lung histology (H&E staining). The following morphological criteria were used for scoring: 0, normal lung; grade 1, minimal edema or infiltration of alveolar or bronchiolar walls; grade 3, moderate edema and inflammatory cell infiltration without obvious damage to lung architecture; grade 4, severe inflammatory cell infiltration with obvious damage to lung architecture. As shown in FIGS. 4A-4B, compound 1 therapy reduced the elevation in MPO and histological lung damage by 82% and 73%, respectively, relative to placebo (D5W).

The subject of the next test is CD mice. As to the kind of experiment: rodent model of inflammation induced by zymosan (lung MPO, lung histology). The format is in vivo. To be noted: 60 mg/kg IP at 1 hour after zymosan 500 mg/kg IP; lung at 18 hours; vs. vehicle control. The procedure: In this study, we tested the potency of compound 1 (R-503) in treatment of an inflammation induced by zymosan, a glucan with repeating glucose units connected by β-1,3-glycosidic linkages.
Male CD mice (20-22 g) were randomly allocated into the following groups (n=10 per experimental arm): (i) zymosan+vehicle group, wherein zymosan (500 mg/kg) was administered via an intraperitoneal (IP) route; (ii) zymosan+compound 1 group, which was identical to the zymosan+vehicle group except for the administration of compound 1 (60 mg/kg IP) at 1 hour after zymosan challenge; and (iii) Sham+vehicle group, which was identical to the zymosan+vehicle group but vehicle was administered in place of zymosan. 18 hours after zymosan admininstration, lung samples were scored for histologic injury by a pathologist blinded to group assignment and neutrophil concentration was determined by measurement of myeloperoxidase (MPO) activity. The following morphological criteria were used for scoring: 0, normal lung; grade 1, minimal edema or infiltration of alveolar or bronchiolar walls; grade 3, moderate edema and inflammatory cell infiltration without obvious damage to lung architecture; grade 4, severe inflammatory cell infiltration with obvious damage to lung architecture. […]

A further test has as its target PARP-1 (Homo sapiens, UniProt P09874). Kind of test: in vitro PARP inhibition potency assay, Universal calorimetric PARP-1 Assay Kit (Trevigen). The format is biochemical. To be noted: 10 point curve, 0.16 nM to 250 nM. The procedure:
In this experiment, the PARP inhibition activity of compound 1 (R-503) was evaluated in in vitro potency assay using Universal calorimetric PARP-1 Assay Kit (Trevigen, Gaithersburg, Md.).

Values joined by “and” are separate entries in the source; they are usually repeats but may differ in a detail not shown here. Equal values may be shown once. Some results are limits rather than exact numbers.

PARP-1, sequence (P09874 whole entry): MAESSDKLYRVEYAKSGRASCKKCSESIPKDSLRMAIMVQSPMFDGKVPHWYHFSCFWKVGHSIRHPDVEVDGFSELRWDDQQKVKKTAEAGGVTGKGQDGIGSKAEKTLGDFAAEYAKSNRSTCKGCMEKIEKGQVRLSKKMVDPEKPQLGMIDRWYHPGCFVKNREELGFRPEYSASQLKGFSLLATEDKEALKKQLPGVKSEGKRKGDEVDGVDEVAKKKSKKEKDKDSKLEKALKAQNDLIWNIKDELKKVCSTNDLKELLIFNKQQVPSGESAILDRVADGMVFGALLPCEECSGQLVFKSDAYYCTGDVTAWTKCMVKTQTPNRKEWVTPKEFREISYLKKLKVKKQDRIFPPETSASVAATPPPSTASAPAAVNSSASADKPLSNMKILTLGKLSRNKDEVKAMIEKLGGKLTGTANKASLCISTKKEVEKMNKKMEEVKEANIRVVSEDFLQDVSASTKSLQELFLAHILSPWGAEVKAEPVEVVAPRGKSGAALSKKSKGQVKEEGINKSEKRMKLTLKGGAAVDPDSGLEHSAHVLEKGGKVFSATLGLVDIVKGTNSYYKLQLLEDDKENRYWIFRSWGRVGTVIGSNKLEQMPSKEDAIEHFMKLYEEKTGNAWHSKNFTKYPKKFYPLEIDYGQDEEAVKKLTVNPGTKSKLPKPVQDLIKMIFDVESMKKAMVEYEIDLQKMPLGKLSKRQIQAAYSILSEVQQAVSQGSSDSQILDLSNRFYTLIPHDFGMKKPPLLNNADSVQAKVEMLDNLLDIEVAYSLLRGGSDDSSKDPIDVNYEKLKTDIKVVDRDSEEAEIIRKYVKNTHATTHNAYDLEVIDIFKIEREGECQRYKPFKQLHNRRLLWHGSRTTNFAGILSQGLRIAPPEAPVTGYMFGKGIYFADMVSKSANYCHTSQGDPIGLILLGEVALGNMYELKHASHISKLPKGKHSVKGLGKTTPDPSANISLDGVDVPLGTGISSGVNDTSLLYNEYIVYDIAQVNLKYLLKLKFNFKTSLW

`O=C(O)CCCC[C@@H]1CCSS1` (racemic) [lipoic acid]: in the test with RAW cells, the “cytoprotective effect in RAW cells exposed to H2O2” value was “no beneficial effect”.

On to `C[C@]1(c2nc3c(C(N)=O)cccc3[nH]2)CCCN1` [ABT-888], for which the 50% inhibitory concentration (IC50) (in general, the concentration that gives 50% inhibition) with PARP was under 5 nM.

Regarding `NC(=O)c1cccc2[nH]c(CCCCC3CCSS3)nc12` (stereo not shown) [compound 1, 2-(4-(1,2-dithiolan-3-yl)butyl)-1H-benzo[d]imidazole-4-carboxamide], in the test on Balb/c mice, the “reduction of elevation in lung MPO” value was 82% and the “reduction of histological lung damage” value was 73%. In the test on CD mice, the “reduction of elevation in lung MPO activity” value is given as 65% and the “reduction of lung histologic injury” value came out at 80%. Besides, the 50% inhibitory concentration (IC50) on PARP-1 is 26.2 nM and 26 nM.
